Test results taken from patent publication US9464056B2, “Fungicidal 4-methylanilino pyrazoles” (E. I. DU PONT DE NEMOURS AND COMPANY, priority 2012, dated 2016).

What was measured:
[1] = system: Septoria nodorum; assay: Test C: preventive spray on wheat seedlings, Septoria nodorum (Septoria glume blotch), visual disease rating; assay type: in vivo; details: Parastagonospora nodorum, topical, 264 h, 100 = 100% disease control, 0 = no disease control relative to controls
Excerpt: General protocol for preparing test suspensions for Tests A-H: the test compounds were first dissolved in acetone in an amount equal to 3% of the final volume and then suspended at the desired concentration (in ppm) in acetone and purified water (50/50 mix by volume) containing 250 ppm of the surfactant Trem® 014 (polyhydric alcohol esters). The resulting test suspensions were then used in Tests A-F. Spraying a 40 ppm test suspension to the point of run-off on the test plants was the equivalent of a rate of 160 g/ha. Unless otherwise indicated, the rating values indicate a 40 ppm test suspension was used. The test suspension was sprayed to the point of run-off on wheat seedlings. The following day the seedlings were inoculated with a spore suspension of Septoria nodorum (the causal agent of Septoria glume blotch) and incubated in a saturated atmosphere at 20° C. for 48 h, and then moved to a growth chamber at 20° C. for 9 days, after which time visual disease ratings were made. Results for Tests A-F are given in Table A. In the Table, a rating of 100 indicates 100% disease control and a rating of 0 indicates no disease control (relative to the controls). A dash (-) indicates no test results.

[2] = system: Botrytis cinerea; assay: Test A: preventive spray on tomato seedlings, Botrytis cinerea (tomato Botrytis), visual disease rating; assay type: in vivo; details: 100 = 100% disease control, 0 = no disease control relative to controls
Excerpt: General protocol for preparing test suspensions for Tests A-H: the test compounds were first dissolved in acetone in an amount equal to 3% of the final volume and then suspended at the desired concentration (in ppm) in acetone and purified water (50/50 mix by volume) containing 250 ppm of the surfactant Trem® 014 (polyhydric alcohol esters). The resulting test suspensions were then used in Tests A-F. Spraying a 40 ppm test suspension to the point of run-off on the test plants was the equivalent of a rate of 160 g/ha. Unless otherwise indicated, the rating values indicate a 40 ppm test suspension was used. The test suspension was sprayed to the point of run-off on tomato seedlings. The following day the seedlings were inoculated with a spore suspension of Botrytis cinerea (the causal agent of tomato Botrytis) and incubated in saturated atmosphere at 20° C. for 48 h, and then moved to a growth chamber at 27° C. for 3 days, after which time visual disease ratings were made. Results for Tests A-F are given in Table A. In the Table, a rating of 100 indicates 100% disease control and a rating of 0 indicates no disease control (relative to the controls). A dash (-) indicates no test results.

[3] = system: Septoria tritici; assay: Test D: preventive spray on wheat seedlings, Septoria tritici (wheat leaf blotch), visual disease rating; assay type: in vivo; details: Zymoseptoria tritici, topical, 504 h, 100 = 100% disease control, 0 = no disease control relative to controls
Excerpt: General protocol for preparing test suspensions for Tests A-H: the test compounds were first dissolved in acetone in an amount equal to 3% of the final volume and then suspended at the desired concentration (in ppm) in acetone and purified water (50/50 mix by volume) containing 250 ppm of the surfactant Trem® 014 (polyhydric alcohol esters). The resulting test suspensions were then used in Tests A-F. Spraying a 40 ppm test suspension to the point of run-off on the test plants was the equivalent of a rate of 160 g/ha. Unless otherwise indicated, the rating values indicate a 40 ppm test suspension was used. The test suspension was sprayed to the point of run-off on wheat seedlings. The following day the seedlings were inoculated with a spore suspension of Septoria tritici (the causal agent of wheat leaf blotch) and incubated in saturated atmosphere at 24° C. for 48 h, and then moved to a growth chamber at 20° C. for 19 days, after which time visual disease ratings were made. Results for Tests A-F are given in Table A. In the Table, a rating of 100 indicates 100% disease control and a rating of 0 indicates no disease control (relative to the controls). A dash (-) indicates no test results.

[4] = system: Puccinia recondita f. sp. tritici; assay: Test E2: preventive spray on wheat seedlings, Puccinia recondita f. sp. tritici (wheat leaf rust), visual disease rating; assay type: in vivo; details: topical, 192 h, 100 = 100% disease control, 0 = no disease control relative to controls
Excerpt: (§1) General protocol for preparing test suspensions for Tests A-H: the test compounds were first dissolved in acetone in an amount equal to 3% of the final volume and then suspended at the desired concentration (in ppm) in acetone and purified water (50/50 mix by volume) containing 250 ppm of the surfactant Trem® 014 (polyhydric alcohol esters). The resulting test suspensions were then used in Tests A-F. Spraying a 40 ppm test suspension to the point of run-off on the test plants was the equivalent of a rate of 160 g/ha. Unless otherwise indicated, the rating values indicate a 40 ppm test suspension was used. The test suspension was sprayed to the point of run-off on wheat seedlings. The following day the seedlings were inoculated with a spore suspension of Puccinia recondita f. sp. tritici (the causal agent of wheat leaf rust) and incubated in a saturated atmosphere at 20° C. for 24 h, and then moved to a growth chamber at 20° C. for 7 days, after which time visual disease ratings were made. Results for Tests A-F are given in Table A. In the Table, a rating of 100 indicates 100% disease control and a rating of 0 indicates no disease control (relative to the controls). A dash (-) indicates no test results.

[5] = system: Blumeria graminis f. sp. tritici; assay: Test F: preventive spray on wheat seedlings, Blumeria graminis f. sp. tritici (wheat powdery mildew), visual disease rating; assay type: in vivo; details: topical, 192 h, 100 = 100% disease control, 0 = no disease control relative to controls
Excerpt: as §1, with “spore dust” for “spore suspension”, “of Blumeria graminis” for “of Puccinia recondita”, “tritici (also known as Erysiphe graminis f. sp. tritici, the” for “tritici (the”, “wheat powdery mildew)” for “wheat leaf rust)”, “in” for “in a saturated atmosphere at 20° C. for 24 h, and then moved to”, “for 8” for “for 7”

Row | Compound | pest or weed control at 40 µg/mL [1] | pest or weed control at 40 µg/mL [2] | pest or weed control at 40 µg/mL [3] | melting point | pest or weed control at 40 µg/mL [4] | pest or weed control at 40 µg/mL [5]
1 | Cc1cc(Cl)c(Nc2c(-c3ccc(F)cc3F)c(C)nn2C)c(Cl)c1 [Compound 16, N-(2,6-dichloro-4-methylphenyl)-4-(2,4-difluorophenyl)-1,3-dimethyl-1H-pyrazol-5-amine] | 97% | 100% | 73% | 147 to 149 °C | 100% | 99%
2 | Cc1cc(Cl)c(Nc2c(-c3ccc(F)cc3Br)c(C)nn2C)c(Cl)c1 [Compound 15, 4-(2-bromo-4-fluorophenyl)-N-(2,6-dichloro-4-methylphenyl)-1,3-dimethyl-1H-pyrazol-5-amine] | 0% | 100% | 100% | 191 to 192 °C | 100% | 99%
3 | Cc1cc(F)c(Nc2c(-c3ccc(F)cc3Cl)c(C)nn2C)c(F)c1 [Compound 10, 4-(2-chloro-4-fluorophenyl)-N-(2,6-difluoro-4-methylphenyl)-1,3-dimethyl-1H-pyrazol-5-amine] | 90% | 100% | 100% | 121 to 123 °C | 100% | 100%
4 | Cc1cc(F)c(Nc2c(-c3ccc(F)cc3Br)c(C)nn2C)c(Cl)c1 [Compound 11, 4-(2-bromo-4-fluorophenyl)-N-(2-chloro-6-fluoro-4-methylphenyl)-1,3-dimethyl-1H-pyrazol-5-amine] |  |  |  | 145 to 146 °C |  | 
5 | Cc1ccc(Nc2c(-c3ccc(F)cc3Br)c(C)nn2C)c(Cl)c1 [Compound 4, 4-(2-bromo-4-fluorophenyl)-N-(2-chloro-4-methylphenyl)-1,3-dimethyl-1H-pyrazol-5-amine] | 0% | 100% | 100% |  | 97% | 97%
6 | Cc1cc(F)c(Nc2c(-c3ccc(F)cc3Cl)c(C)nn2C)c(Cl)c1 [Compound 12, N-(2-chloro-6-fluoro-4-methylphenyl)-4-(2-chloro-4-fluorophenyl)-1,3-dimethyl-1H-pyrazol-5-amine] |  |  |  | 137 to 138 °C |  | 
7 | Cc1ccc(Nc2c(-c3ccc(F)cc3Cl)c(C)nn2C)c(Cl)c1 [Compound 2, 4-(2-chloro-4-fluorophenyl)-N-(2-chloro-4-methylphenyl)-1,3-dimethyl-1H-pyrazol-5-amine] | 0% | 100% | 100% |  | 95% | 97%
8 | Cc1ccc(Nc2c(-c3ccc(F)cc3Br)c(C)nn2C)c(Br)c1 [Compound 5, 4-(2-bromo-4-fluorophenyl)-N-(2-bromo-4-methylphenyl)-1,3-dimethyl-1H-pyrazol-5-amine] | 0% | 99% | 100% |  | 97% | 97%
9 | Cc1ccc(Nc2c(-c3ccc(F)cc3Cl)c(C)nn2C)c(Br)c1 [Compound 3, N-(2-bromo-4-methylphenyl)-4-(2-chloro-4-fluorophenyl)-1,3-dimethyl-1H-pyrazol-5-amine] | 0% | 99% | 100% |  | 99% | 96%
10 | Cc1ccc(Nc2c(-c3ccc(F)cc3Cl)c(C)nn2C)c(F)c1 [Compound 6, 4-(2-chloro-4-fluorophenyl)-N-(2-fluoro-4-methylphenyl)-1,3-dimethyl-1H-pyrazol-5-amine] | 0% | 99% | 100% |  | 0% | 100%
